According to article PMC7709957 (2020):

Tested on: F. ulcerans ZTP riboswitch (pfl RNA, 75-nt aptamer domain, crystal construct) (RNA, riboswitch) UAUCAGUUAUAUGACUGACGGAACGUGGAAUUAACCACAUGAAGUAUAACGAUGACAAUGCCGACCGUCUGGGCG
Assay: ITC
Conditions: 150 mM KCl, 10 mM MgCl2, 50 mM Hepes-KOH pH 7.4, 37 °C

| Structure (SMILES) | Kd [nM] | Kd (3% DMSO) [nM] |
| --- | --- | --- |
| NC(=O)c1nc[nH]c1N | 41000 ± 4000 | – |
| NC(=O)c1ncn(-c2ccccn2)c1N | 5600 ± 3200 | – |
| NC(=O)c1ncn(-c2cccnc2)c1N | – | 600 ± 60 |
| NC(=O)c1ncn([C@@H]2O[C@H](CO)[C@@H](O)[C@H]2O)c1N | 2300 ± 600 | – |
| NC(=O)c1ncn([C@@H]2O[C@H](COP(=O)(O)O)[C@@H](O)[C@H]2O)c1N | 320 ± 130 | – |
